# Results published in patent publication US9243281B2, “Neuroprotective chemicals and methods for identifying and using same” (Board of Regents of The University of Texas System, priority 2013, dated 2016).
# Assays:
# Format in all cases: cell-based
# U2OS cells [1] = assay: cell survival assay with seven other toxins; settings: 5 μM P7C3-A20 2 h prior to toxins for 72 h
# Method: FIG. 8. P7C3A20 protects U2OS cells from doxorubicin-mediated toxicity. U2OS cells were treated with 5 μM P7C3-A20 for 2 h prior to incubation with the indicated concentrations of eight toxins for 72 h.
# (§1) Progress on studies aimed towards resolving the mode of action of P7C3 has been hampered by the fact that we have been limited to studies of drug action in living animals. Our standard assay of neurogenesis requires, under optimal conditions, a one month turn-around from the synthesis of a new derivative to a score for its neuroprotective activity. In efforts to break this logjam, we tested whether P7C3 might have cell-protective activity to any of eight generic toxins.
# Cell survival assay was performed in 96-well plates using CellTiter-Glo Luminescent Cell Viability Assay kit (Promega) that measures cellular ATP content. The CellTiter-Glo reagent was diluted by adding 2 volumes of PBS containing 1% Triton X-100. 50 μl of diluted reagent was directly added to 100 μl of cell culture medium per well. […] Luminescence was recorded by Tecan […]luor Plus reader (Tecan). Cell survival was presented as the percentage of viable cells compared with untreated control, and mean±SD was calculated from duplicates. The dox:tox assay of P7C3 analogs was carried out in the HTS Core (University of Texas Southwestern Medical Center) using the EnVison multimode plate reader (Perkin Elmer).
# [2] = system: NAD levels in doxorubicin-treated U2OS cells; assay: NAD rebound assay in doxorubicin-treated cells (NAD/NADH Glo); settings: 0.5 μM doxorubicin 45 h
# Method: FIG. 12. Five-point dose response curves (DRC) of all tested compounds in NAD rebound assay. […] Cellular NAD abundance was determined by NAD/NADH Glo assay kit.
# Each chemical variant of P7C3 was co-incubated with doxorubicin on cultured U2OS cells at five doses (0.03 uM, 0.1 uM, 0.3 uM, 1 uM and 3 uM). After 45 hrs incubation, cells were assayed for intracellular levels of NAD (FIG. 12).
# Assay was performed following the manufacturer's protocol. NAD/NADH-Glo reagent contains the NAD Cycling Enzyme that converts NAD+ to NADH. In the presence of NADH, the enzyme reductase reduces a proluciferin reductase substrate to form luciferin. Cells were grown in 96- or 384-well plates. 50 μl or 15 μl of NAD/NADH-Glo™ Detection Reagent were added to each well. The resulting luminescence signals were measured by Tecan plate reader or EnVison multimode plate reader (Perkin Elmer).
# U2OS cells [3] = assay: western blotting of caspase-3 activation and γ-H2AX after doxorubicin
# Method: FIGS. 9A-9B. […] (FIG. 9A) U2OS cells were treated with increasing concentrations of P7C3-A20 for 2 h prior to exposure to 0.5 μM doxorubicin for another 2 h. Cells were harvested and subjected to western blotting with the DNA damage marker, γ-H2AX. Actin was served as loading control. (FIG. 9B) U2OS cells were treated with P7C3-A20 and doxorubicin for the indicated time. Caspase-3 activation was determined by western blotting. Caspase-3 cleavage was observed when treated with doxorubicin alone at 60 h, but was prevented in the presence of P7C3-A20.
# as §1
# U2OS cells [4] = assay: doxorubicin toxicity (dox:tox) protection assay, Cell Titer Glo cell survival; settings: cultured U2OS cells
# Text: FIGS. 2A-2D. […] (FIG. 2A) Chemical structure of P7C3-S326. […] (FIG. 2C) Formulas used for calculating doxorubicin toxicity (dox:tox) protection activity. Protection activity is expressed by (Sinf−S0)/AC50 in the twelve-point dose response curve (DRC) corresponding to each compound, wherein both efficacy and potency of compounds were considered. Sinf represents the expected maximal protection. S0 is the baseline. […] In the photo-crosslinking assays, the p70 band intensity was quantified by Image J, and compared the sample of P7C3-S326 alone with that of P7C3-S326 plus competitor. Pearson correlation coefficient (r) and two tailed P value were determined by GraphPad Prism 6 and Spearman Rank Correlation (v1.0.1) software.
# FIG. 10. Twelve-point dose response curves (DRC) of all tested compounds in doxorubicin toxicity protection assay. […] Cell viability was determined by Cell Titer Glo assay kit.
# Cell survival assay was performed in 96-well plates using CellTiter-Glo Luminescent Cell Viability Assay kit (Promega) that measures cellular ATP content. The CellTiter-Glo reagent was diluted by adding 2 volumes of PBS containing 1% Triton X-100. 50 μl of diluted reagent was directly added to 100 μl of cell culture medium per well. Plates were incubated at room temperature for 10 minutes. Luminescence was recorded by Tecan […]luor Plus reader (Tecan). Cell survival was presented as the percentage of viable cells compared with untreated control, and mean±SD was calculated from duplicates. The dox:tox assay of P7C3 analogs was carried out in the HTS Core (University of Texas Southwestern Medical Center) using the EnVison multimode plate reader (Perkin Elmer).
# [5] = system: nicotinamide salvage pathway in U2OS cells; assay: nicotinamide flux analysis with 14C-labeled nicotinamide (TLC); settings: 0.5 μM doxorubicin 48 h, then 6 h 14C-nicotinamide
# Method: FIGS. 6A-6B. P7C3-A20 enhances the flux of nicotinamide through the salvage pathway. (FIG. 6A) Cells were pre-treated with 0.5 μM doxorubicin for 48 hours, followed by 6 hours treatment with ^14C-nicotinamide in the presence of the indicated amount of P7C3-A20. Metabolites were extracted and analyzed by thin layer chromatography. (FIG. 6B) Quantification of the relative intensities of NAD and NMN from the thin layer chromatogram.
# NAMPT is the rate limiting enzyme in the salvage pathway whereby cells sequentially convert nicotinamide into nicotinamide […] mononucleotide (NMN) and NAD (Preiss and Handler, 1958). If active variants of P7C3 indeed bind to the NAMPT dimer in a manner fostering its activity, then these compounds should enhance the flux of nicotinamide through the salvage pathway. To test this hypothesis, ^14C-labeled nicotinamide was administered to cultured U2OS cells. Six hours later, cells were lysed in perchloric acid and cleared by centrifugation so that soluble materials could be separated by thin layer chromatography (TLC) followed by autoradiography.
# Logarithmically growing cells cultured in 6-well plates were treated with doxorubicin (0.5 μM) for 48 hours. […] Afterwards, the screen was scanned using the Typhoon scanner, and the ^14C-labeled compounds were quantified using Image J.
smiles,measurement,setting,value
COc1cccc(NCC(F)Cn2c3ccc(Br)cc3c3cc(Br)ccc32)c1 (stereo not drawn) [S10],protection from seven other toxins,U2OS cells [1],no evidence of drug-mediated protection
same,rebound of NAD levels (NAD/NADH-Glo kit),[2],rebound of NAD levels
same,DNA damage response (phosphorylation of H2AX),U2OS cells [3]; 0.5 μM doxorubicin,not DNA damage response
same,doxorubicin-induced apoptosis (caspase-3 activation),U2OS cells [3]; co-administration with doxorubicin,blocked doxorubicin-induced apoptosis
same,protection from doxorubicin-mediated toxicity (dox:tox assay),U2OS cells [4],protect cultured U2OS cells from doxorubicin-mediated toxicity
same,conversion of radiolabeled nicotinamide into NMN and NAD,[5],enhanced conversion of radiolabeled nicotinamide into NMN and NAD
